Measured values taken from patent US20060281736A1, “Product comprising at least one phosphatase cdc25 inhibitor combined with at least one other anticancer agent” (priority 2003, published 2006).
Counter-ions that a name gives are not always drawn.

Tested on: Mia-PaCa2 (human pancreas cancer cells)
Assay: Antiproliferative activity on Mia-Paca2 cells (WST1)
Format: cell-based
Settings: MIA PaCa-2, 96 hours treatment, read-out: IC50 on the cell proliferation of Mia-Paca2 lines
Procedure: ii) Characterization of the Antiproliferative Activity:
By way of example, the effect of a treatment on two human cell lines Mia-Paca2 and DU145 with the compounds of the examples described previously will be studied. The cell lines DU145 (human prostate cancer cells) and Mia-PaCa2 (human pancreas cancer cells) were acquired from the American Tissue Culture Collection (Rockville, Md., USA). The cells placed in 80 μl of Dulbecco's Modified Eagle's medium (Gibco-Brl, Cergy-Pontoise, France) completed with 10% foetal calf serum inactivated by heating (Gibco-Brl, Cergy-Pontoise, France), 50,000 units/l of penicillin and 50 mg/l of streptomycin (Gibco-Brl, Cergy-Pontoise, France), and 2 mM of glutamine (Gibco-Brl, Cergy-Pontoise, France) were seeded on a 96-well plate on day 0. The cells were treated on day 1 for 96 hours with increasing concentrations of each of the compounds to be tested up to 10 μM. At the end of this period, quantification of cell proliferation is evaluated by a colorimetric test based on the cleavage of the tetrazolium salt WST1 by the mitochondrial dehydrogenases in viable cells leading to the formation of formazan (Boehringer Mannheim, Meylan, France). These tests are carried out in duplicate with 8 determinations per concentration tested. For each compound to be tested, the values included in the linear part of the sigmoid were retained for a linear regression analysis and used to estimate the inhibitory concentration IC50. The products are solubilized in dimethylsulphoxide (DMSO) at 10^−2 M and finally used in culture with 0.1% DMSO.

SMILES	IC50 [µM]
Cc1nc2c(s1)C(=O)C=C(NCCCCCN(C)C)C2=O [Example 27, 5-{[5-(dimethylamino)pentyl]amino}-2-methyl-1,3-benzothiazole-4,7-dione]	≤ 10
Cc1nc2c(s1)C(=O)C=C(NCCCCN(C)C)C2=O [Example 26, 5-{[4-(dimethylamino)butyl]amino}-2-methyl-1,3-benzothiazole-4,7-dione]	≤ 10
Cc1nc2c(s1)C(=O)C(Cl)=C(NCCN(C)C)C2=O [Example 34, 6-chloro-5-{[2-(dimethylamino)ethyl]amino}-2-methyl-1,3-benzothiazole-4,7-dione]	≤ 10
Cc1nc2c(s1)C(=O)C=C(NCC(C)(C)CN(C)C)C2=O [Example 4, 5-{[3-(dimethylamino)-2,2-dimethylpropyl]amino}-2-methyl-1,3-benzothiazole-4,7-dione]	≤ 10
Cc1nc2c(s1)C(=O)C=C(NCCCN(C)C(=O)OC(C)(C)C)C2=O [Example 30, tert-butyl methyl{3-[(2-methyl-4,7-dioxo-4,7-dihydro-1,3-benzothiazol-5-yl)amino]propyl}carbamate]	≤ 10
Cc1nc2c(s1)C(=O)C=C(NC1CCN(Cc3ccccc3)C1)C2=O (stereo not drawn) [Example 22, 5-[(1-benzylpyrrolidin-3-yl)amino]-2-methyl-1,3-benzothiazole-4,7-dione]	≤ 10
Cc1nc2c(s1)C(=O)C=C(NCc1cccs1)C2=O [Example 8, 2-methyl-5-[(2-thienylmethyl)amino]-1,3-benzothiazole-4,7-dione]	≤ 10
Cc1nc2c(s1)C(=O)C=C(NCCCN(C)C)C2=O [Example 23, 5-{[3-(dimethylamino)propyl]amino}-2-methyl-1,3-benzothiazole-4,7-dione]	≤ 10
Cc1nc2c(s1)C(=O)C=C(NCCCN1CCCCC1C)C2=O (stereo not drawn) [Example 25, 2-methyl-5-{[3-(2-methylpiperidin-1-yl)propyl]amino)-1,3-benzothiazole-4,7-dione]	≤ 10
CCCCSC1=C(NCCN(C)C)C(=O)c2nc(C)sc2C1=O [Example 36, 6-(butylthio)-5-{[2-(dimethylamino)ethyl]amino}-2-methyl-1,3-benzothiazole-4,7-dione]	≤ 10
Cc1nc2c(s1)C(=O)C=C(NCCN1CCOCC1)C2=O [Example 1, 2-methyl-5-{[2-(4-morpholinyl)ethyl]amino}-1,3-benzothiazole-4,7-dione]	≤ 10
Cc1nc2c(s1)C(=O)C=C(NC1CCc3ccccc31)C2=O (stereo not drawn) [Example 28, 5-(2,3-dihydro-1H-inden-1-ylamino)-2-methyl-1,3-benzothiazole-4,7-dione]	≤ 10
COCCNC1=CC(=O)c2sc(C)nc2C1=O [Example 18, 5-[(2-methoxyethyl)amino]-2-methyl-1,3-benzothiazole-4,7-dione]	≤ 10
Cc1nc2c(s1)C(=O)C=C(NCCN1CCCC1)C2=O [Example 19, 2-methyl-5-[(2-pyrrolidin-1-ylethyl)amino]-1,3-benzothiazole-4,7-dione]	≤ 10
Cc1nc2c(s1)C(=O)C=C(NCCCNC(=O)OC(C)(C)C)C2=O [Example 31, tert-butyl 3-[(2-methyl-4,7-dioxo-4,7-dihydro-1,3-benzothiazol-5-yl)amino]propylcarbamate]	≤ 10
CN(C)CCNC1=CC(=O)c2sc(CN3CCCCC3)nc2C1=O [Example 39, 5-{[2-(dimethylamino)ethyl]amino}-2-(piperidin-1-ylmethyl)-1,3-benzothiazole-4,7-dione]	≤ 10
Cc1nc2c(s1)C(=O)C=C(NCC13CC4CC(CC(C4)C1)C3)C2=O [Example 7, 5-[(1-adamantylmethyl)amino]-2-methyl-1,3-benzothiazole-4,7-dione]	≤ 10
Cc1nc2c(s1)C(=O)C=C(NCCN(C(C)C)C(C)C)C2=O [Example 21, 5-{[2-(diisopropylamino)ethyl]amino}-2-methyl-1,3-benzothiazole-4,7-dione]	≤ 10
CNCCCNC1=CC(=O)c2sc(C)nc2C1=O [Example 32, 2-methyl-5-{[3-(methylamino)propyl]amino}-1,3-benzothiazole-4,7-dione hydrochloride]	≤ 10
Cc1nc2c(s1)C(=O)C=C(NCCCN1CCN(C)CC1)C2=O [Example 5, 2-methyl-5-{[3-(4-methyl-1-piperazinyl)propyl]amino}-1,3-benzothiazole-4,7-dione]	≤ 10
Cc1nc2c(s1)C(=O)C=C(N1CCN(Cc3ccccc3)CC1)C2=O [Example 14, 5-(4-benzyl-1-piperazinyl)-2-methyl-1,3-benzothiazole-4,7-dione]	≤ 10
Cc1nc2c(s1)C(=O)C=C(NCCN1CCCCC1)C2=O [Example 20, 2-methyl-5-[(2-piperidin-1-ylethyl)amino]-1,3-benzothiazole-4,7-dione]	≤ 10
Cc1nc2c(s1)C(=O)C=C(N(CCN(C)C)Cc1ccccc1)C2=O [Example 29, 5-{benzyl[2-(dimethylamino)ethyl]amino}-2-methyl-1,3-benzothiazole-4,7-dione]	≤ 10
CCCCCC(CC)NC1=CC(=O)c2sc(C)nc2C1=O (stereo not drawn) [Example 6, 5-[(1-ethylhexyl)amino]-2-methyl-1,3-benzothiazole-4,7-dione]	≤ 10
Cc1nc2c(s1)C(=O)C=C(NCCCCCCN(C)C)C2=O [Example 3, 5-{[6-(dimethylamino)hexyl]amino}-2-methyl-1,3-benzothiazole-4,7-dione]	≤ 10
Cc1nc2c(s1)C(=O)C=C(NCc1cccc(Cl)c1)C2=O [Example 9, 5-[(3-chlorobenzyl)amino]-2-methyl-1,3-benzothiazole-4,7-dione]	≤ 10
Cc1nc2c(s1)C(=O)C=C(NCCN(C)C)C2=O [Example 2, 5-{[2-(dimethylamino)ethyl]amino}-2-methyl-1,3-benzothiazole-4,7-dione hydrochloride]	≤ 10
CN(C)CCNC1=CC(=O)c2sc(CN3CCN(c4ccccc4)CC3)nc2C1=O [Example 38, 5-{1[2-(dimethylamino)ethyl]amino}-2-[(4-phenylpiperazin-1-yl)methyl]-1,3-benzothiazole-4,7-dione]	≤ 10
Cc1nc2c(s1)C(=O)C=C(NCCC1CCCN1C)C2=O (stereo not drawn) [Example 24, 2-methyl-5-{[2-(1-methylpyrrolidin-2-yl)ethyl]amino}-1,3-benzothiazole-4,7-dione]	≤ 10
CN(C)CCNC1=CC(=O)c2sc(CN3CCOCC3)nc2C1=O [Example 37, 5-{[2-(dimethylamino)ethyl]amino}-2-(morpholin-4-ylmethyl)-1,3-benzothiazole-4,7-dione]	≤ 10
